Several values for one entry are separate records, joined by “and”; a condition that tells them apart may be missing. Equal values may be shown once. Inconclusive results and toxic doses are left out.
Test system: P388 leukemia ip, CD2F1 mice, survival T/C
Assay: NCI In Vivo Anticancer Drug Screen. Data for tumor model P388 Leukemia (intraperitoneal) in CD2F1 (CDF1) mice
Settings: endpoint: median survival time, higher = longer survival
In short: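 Mice carrying the transplanted tumor received test compound or vehicle. Survival was recorded in each group, and the value is the treated-group measurement divided by that of the vehicle-treated control group.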

[1] = dose: 50.0 mg/kg/injection, schedule: Q01DX009 (ip), vehicle: saline with Tween-80
[2] = dose: 100.0 mg/kg/injection, schedule: Q01DX009 (ip), vehicle: saline with Tween-80
[3] = dose: 200.0 mg/kg/injection, schedule: Q01DX009 (ip), vehicle: saline with Tween-80
[4] = dose: 100.0 mg/kg/injection, schedule: Q04DX003 (ip), vehicle: saline with Tween-80
[5] = dose: 50.0 mg/kg/injection, schedule: Q01DX005 (ip), vehicle: saline
[6] = dose: 100.0 mg/kg/injection, schedule: Q04DX002 (ip), vehicle: saline with Tween-80
[7] = dose: 50.0 mg/kg/injection, schedule: Q01DX005 (ip), vehicle: saline with Tween-80
[8] = dose: 100.0 mg/kg/injection, schedule: Q01DX005 (ip), vehicle: saline with Tween-80
[9] = dose: 200.0 mg/kg/injection, schedule: Q01DX005 (ip), vehicle: saline with Tween-80
[10] = dose: 50.0 mg/kg/injection, schedule: Q01DX005 (ip), vehicle: Klucel (hydroxypropylcellulose) (HPC)
[11] = dose: 12.5 mg/kg/injection, schedule: Q01DX009 (ip), vehicle: saline
[12] = dose: 25.0 mg/kg/injection, schedule: Q01DX009 (ip), vehicle: saline
[13] = dose: 25.0 mg/kg/injection, schedule: Q01DX005 (ip), vehicle: Klucel (hydroxypropylcellulose) (HPC)

SMILES: CCOC(=O)Cc1c[nH]c2ccc(N(CCCl)CCCl)cc12
- T/C (dose: 5.0 mg/kg/injection, schedule: Q04DX003 (ip), vehicle: Klucel (hydroxypropylcellulose) (HPC)): 204 % of control
- T/C (dose: 8.0 mg/kg/injection, schedule: Q04DX003 (ip), vehicle: Klucel (hydroxypropylcellulose) (HPC)): 245 % of control
- T/C (dose: 12.5 mg/kg/injection, schedule: Q04DX003 (ip), vehicle: Klucel (hydroxypropylcellulose) (HPC)): 245 % of control

SMILES: CON/C=C(C#N)/C=C/C=Nc1ccc(S(=O)(=O)Nc2onc(C)c2C)cc1
- T/C [1]: 100 % of control
- T/C [2]: 92 % of control
- T/C [3]: 98 % of control

SMILES: CNC(=O)O/N=C/C(C)(C)SC
- T/C (dose: 0.11 mg/kg/injection, schedule: Q01DX005 (ip), vehicle: Klucel (hydroxypropylcellulose) (HPC)): 101 % of control
- T/C (dose: 0.23 mg/kg/injection, schedule: Q01DX005 (ip), vehicle: Klucel (hydroxypropylcellulose) (HPC)): 101 % of control
- T/C (dose: 0.46 mg/kg/injection, schedule: Q01DX005 (ip), vehicle: Klucel (hydroxypropylcellulose) (HPC)): 101 % of control

SMILES: NC(=S)N/N=C/c1cc(Br)ccc1O
- T/C [4]: 86 % of control
- T/C (dose: 200.0 mg/kg/injection, schedule: Q04DX003 (ip), vehicle: saline with Tween-80): 94 % of control
- T/C (dose: 400.0 mg/kg/injection, schedule: Q04DX003 (ip), vehicle: saline with Tween-80): 112 % of control

SMILES: COC(=O)C(CC=C(C)C)C(C)=O (stereo unspecified)
- T/C [5]: 101 % of control
- T/C (dose: 100.0 mg/kg/injection, schedule: Q01DX005 (ip), vehicle: saline): 101 % of control
- T/C (dose: 200.0 mg/kg/injection, schedule: Q01DX005 (ip), vehicle: saline): 105 % of control

SMILES: Cc1nccc2c1[nH]c1cc(N)ccc12.[Cl][Sn][Cl]
- T/C (dose: 5.0 mg/kg/injection, schedule: Q01DX009 (ip), vehicle: saline sonified): 100 % of control
- T/C (dose: 10.0 mg/kg/injection, schedule: Q01DX009 (ip), vehicle: saline sonified): 95 % of control
- T/C (dose: 20.0 mg/kg/injection, schedule: Q01DX009 (ip), vehicle: saline sonified): 100 % of control

SMILES: CCOC(=O)c1ccc(N=NN(C)CC2OC3OC(C)(C)OC3C2OC)cc1 (stereo unspecified)
- T/C [6]: 98 % of control
- T/C (dose: 200.0 mg/kg/injection, schedule: Q04DX002 (ip), vehicle: saline with Tween-80): 98 % of control
- T/C (dose: 400.0 mg/kg/injection, schedule: Q04DX002 (ip), vehicle: saline with Tween-80): 102 % of control

SMILES: Cc1ccc(S(=O)(=O)OCC2OC(OC3(CO)OC(COS(=O)(=O)c4ccc(C)cc4)C(O)C3O)C(O)C(O)C2O)cc1 (stereo unspecified)
- T/C [1]: 100 % of control
- T/C [2]: 98 % of control
- T/C [3]: 99 % of control

SMILES: CC(CCN1CCOCC1)Nc1ccnc2cc(Cl)ccc12 (stereo unspecified)
- T/C (dose: 12.5 mg/kg/injection, schedule: Q01DX005 (ip), vehicle: saline): 98 % of control
- T/C (dose: 25.0 mg/kg/injection, schedule: Q01DX005 (ip), vehicle: saline): 102 % of control
- T/C [5]: 107 % of control and 95 % of control

SMILES: CC1=CC(=O)C(O)C2(C)C1CC1OC(=O)C(OC3OC(CO)C(O)C(O)C3O)C3C(C)C(O)C4(O)OCC13C42 (stereo unspecified)
- T/C (dose: 0.25 mg/kg/injection, schedule: Q01DX005 (ip), vehicle: water): 101 % of control
- T/C (dose: 0.5 mg/kg/injection, schedule: Q01DX005 (ip), vehicle: water): 102 % of control

SMILES: C#CC1=CC(=O)C(OC)=CC1=O
- T/C (dose: 7.5 mg/kg/injection, schedule: Q01DX005 (ip), vehicle: Klucel (hydroxypropylcellulose) (HPC)): 99 % of control
- T/C (dose: 15.0 mg/kg/injection, schedule: Q01DX005 (ip), vehicle: Klucel (hydroxypropylcellulose) (HPC)): 100 % of control

SMILES: CN=C(N)N/N=C(\C)c1ccc2c(c1)Cc1cccc(Br)c1-2
- T/C (dose: 25.0 mg/kg/injection, schedule: Q04DX002 (ip), vehicle: saline with Tween-80): 111 % of control
- T/C (dose: 50.0 mg/kg/injection, schedule: Q04DX002 (ip), vehicle: saline with Tween-80): 109 % of control
- T/C [6]: 109 % of control

SMILES: CC(C)(C)N=C(CCN1CCCCC1)Nc1ccc([N+](=O)[O-])cc1
- T/C [1]: 112 % of control
- T/C [2]: 110 % of control
- T/C [3]: 103 % of control

SMILES: CC1CCC2(OC2(C)C)C(=O)C1 (stereo unspecified)
- T/C (dose: 100.0 mg/kg/injection, schedule: Q04DX002 (ip), vehicle: saline): 103 % of control
- T/C (dose: 200.0 mg/kg/injection, schedule: Q04DX002 (ip), vehicle: saline): 103 % of control
- T/C (dose: 400.0 mg/kg/injection, schedule: Q04DX002 (ip), vehicle: saline): 104 % of control

SMILES: O=C(/C(=C\c1ccc(F)cc1)S(=O)(=O)c1ccc(F)cc1)c1ccccc1
- T/C [7]: 110 % of control
- T/C [8]: 102 % of control
- T/C [9]: 103 % of control

SMILES: CCCCCC1(CCBr)C(=O)NC(=O)NC1=O
- T/C [10]: 100 % of control
- T/C (dose: 100.0 mg/kg/injection, schedule: Q01DX005 (ip), vehicle: Klucel (hydroxypropylcellulose) (HPC)): 102 % of control
- T/C (dose: 200.0 mg/kg/injection, schedule: Q01DX005 (ip), vehicle: Klucel (hydroxypropylcellulose) (HPC)): 108 % of control

SMILES: Nc1nc(SCc2ccccc2Cl)c2[nH]cnc2n1
- T/C [4]: 100 % of control

SMILES: O=C1CC2C=CC2C1 (stereo unspecified)
- T/C (dose: 6.25 mg/kg/injection, schedule: Q01DX009 (ip), vehicle: saline): 113 % of control
- T/C [11]: 103 % of control
- T/C [12]: 103 % of control
- T/C [3]: 95 % of control

SMILES: C1CCN2CC3CC(CN4CCCC[C@@H]34)[C@@H]2C1
- T/C [13]: 100 % of control

SMILES: CCC1(c2ccccc2)SC(=O)NC1=O (stereo unspecified)
- T/C [1]: 91 % of control
- T/C [2]: 91 % of control
- T/C [3]: 98 % of control

SMILES: Cc1cc(=O)n(C)c2ccc(N)cc12
- T/C (dose: 25.0 mg/kg/injection, schedule: Q01DX009 (ip), vehicle: Klucel (hydroxypropylcellulose) (HPC)): 101 % of control
- T/C (dose: 50.0 mg/kg/injection, schedule: Q01DX009 (ip), vehicle: Klucel (hydroxypropylcellulose) (HPC)): 100 % of control
- T/C (dose: 100.0 mg/kg/injection, schedule: Q01DX009 (ip), vehicle: Klucel (hydroxypropylcellulose) (HPC)): 101 % of control

SMILES: CCC(C)C1NC(=O)C2CCCN2C(=O)C(CC2CO2)OC(=O)CCNC(=O)C(C)N(C)C(=O)C(C(C)C)N(C)C1=O (stereo unspecified)
- T/C (dose: 1.56 mg/kg/injection, schedule: Q01DX005 (ip), vehicle: water): 100 % of control
- T/C (dose: 3.12 mg/kg/injection, schedule: Q01DX005 (ip), vehicle: water): 109 % of control

SMILES: CCCCCCc1c(C#N)c(S)[nH]c(=S)c1C#N
- T/C [11]: 95 % of control
- T/C [12]: 106 % of control
- T/C (dose: 50.0 mg/kg/injection, schedule: Q01DX009 (ip), vehicle: saline): 106 % of control and 96 % of control

SMILES: Cc1cc(NCCCCCCCCNc2cc(C)nc3cc([N+](=O)[O-])ccc23)c2ccc([N+](=O)[O-])cc2n1
- T/C (dose: 12.5 mg/kg/injection, schedule: Q01DX009 (ip), vehicle: water): 110 % of control
- T/C (dose: 25.0 mg/kg/injection, schedule: Q01DX009 (ip), vehicle: water): 101 % of control

SMILES: COC(=O)C1CCC2C(C1)OC1(CC(OC(=O)/C=C/c3ccccc3)C(C)CO1)C21CO1 (stereo unspecified)
- T/C (dose: 3.0 mg/kg/injection, schedule: Q01DX005 (ip), vehicle: saline + alcohol): 100 % of control
- T/C (dose: 5.0 mg/kg/injection, schedule: Q01DX009 (ip), vehicle: saline + alcohol): 95 % of control
- T/C (dose: 6.0 mg/kg/injection, schedule: Q01DX005 (ip), vehicle: saline + alcohol): 97 % of control
- T/C (dose: 10.0 mg/kg/injection, schedule: Q01DX009 (ip), vehicle: saline + alcohol): 106 % of control
- T/C (dose: 12.0 mg/kg/injection, schedule: Q01DX005 (ip), vehicle: saline + alcohol): 97 % of control
- T/C (dose: 20.0 mg/kg/injection, schedule: Q01DX009 (ip), vehicle: saline + alcohol): 103 % of control
- T/C (dose: 24.0 mg/kg/injection, schedule: Q01DX005 (ip), vehicle: saline + alcohol): 99 % of control
- T/C (dose: 40.0 mg/kg/injection, schedule: Q01DX009 (ip), vehicle: saline + alcohol): 103 % of control

SMILES: O=C1NC(=O)C2CCCCC12 (stereo unspecified)
- T/C (dose: 12.5 mg/kg/injection, schedule: Q01DX009 (ip), vehicle: saline with Tween-80): 109 % of control
- T/C (dose: 25.0 mg/kg/injection, schedule: Q01DX009 (ip), vehicle: saline with Tween-80): 102 % of control
- T/C [1]: 100 % of control
- T/C [2]: 100 % of control

SMILES: COc1cc2c(cc1O)C(=O)CCC=C2
- T/C [1]: 103 % of control
- T/C [2]: 101 % of control
- T/C [3]: 108 % of control

SMILES: C=CC[C@]1(S(=O)(=O)c2ccccc2)[C@@H](N(C)C)C[C@@H](O[Si](C)(C)C(C)(C)C)[C@@H]1/C=C/[C@H](CCCCC)O[Si](C)(C)C(C)(C)C
- T/C (dose: 12.5 mg/kg/injection, schedule: Q01DX005 (ip), vehicle: Klucel (hydroxypropylcellulose) (HPC)): 107 % of control
- T/C [13]: 111 % of control
- T/C [10]: 107 % of control

SMILES: NC(=S)N/N=C/c1cc(=O)c2cc(Cl)ccc2o1
- T/C [7]: 94 % of control
- T/C [8]: 93 % of control
- T/C [9]: 92 % of control

Source: PubChem BioAssay AID330 (DTP/NCI, 2004)
